# Columns and labels:
# Type in all cases: in vivo
# [1] = test system: adult cat fleas (Ctenocephalides felis); assay: Ctenocephalides felis in-vitro contact test, adult cat flea; conditions: 5 μg/cm^2 (=500 g/ha), after 48 hours, read-out: efficacy (fleas dead or moribund)
# Description: Ctenocephalides felis—In-Vitro Contact Tests Adult Cat Flea
# (§1) 9 mg compound is solved in 1 mL acetone and diluted with acetone to the desired concentration. 250 μL of the test solution is filled in 25 mL glass test tubes and homogeneously distributed on the inner walls by rotation and tilting on a shaking device (2 h at 30 rpm). With a compound concentration of 900 ppm, an inner surface of 44.7 cm^2 and a homogeneous distribution, a dose of 5 μg/cm^2 is achieved.
# After the solvent has evaporated, each test tube is filled with 5-10 adult cat fleas (Ctenocephalides felis), closed with a perforated lid and incubated in a lying position at room temperature and relative humidity. After 48 hours efficacy is determined. The fleas are patted on the ground of the tubes and are incubated on a heating plate at 45-50° C. for at most 5 minutes Immotile or uncoordinated moving fleas, which are not able to escape the heat by climbing upwards, are marked as dead or moribund.
# An efficacy of 100% means all fleas are dead or moribund; 0% means no fleas are dead or moribund.
# [2] = test system: green peach aphid (Myzus persicae); assay: Myzus persicae oral test; conditions: 120 h, after 5 days
# Description: • Solvent: 100 parts by weight acetone
# To produce a suitable preparation of active compound, 1 part by weight of active compound is mixed with the stated amount of solvent, and the concentrate is diluted with water to the desired concentration.
# 50 μL compound solution is filled in microtiter plates and 150 μL IPL41 insect medium (33%+15% sugar) is added to obtain a total volume of 200 μL per well. Afterwards the plates are sealed with parafilm through which a mixed population of the green peach aphid (Myzus persicae) can suck on the compound preparation.
# After 5 days mortality in % is determined. 100% means all aphids have been killed and 0% means none of the aphids have been killed.
# [3] = test system: larvae of the banded cucumber beetle (Diabrotica balteata); assay: Diabrotica balteata spray test; conditions: 168 h, after 7 days, wheat seeds, read-out: efficacy (seedling growth); for pest or weed control at 32 µg/disc, 100 g/ha: 100 g/ha (=32 μg/well); for pest or weed control at 160 µg/disc, 500 g/ha: 500 g/ha (=160 μg/well)
# Method in brief: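 Efficacy is seedling survival after 7 days, where 0% means no seedlings grew and 100% means growth equal to untreated, uninfested controls. Wheat seedlings, germinated on agar for 1 day, were sprayed with the aqueous emulsifier dilution (acetone/DMF solvent) and then exposed to 10–20 banded cucumber beetle larvae.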
# [4] = test system: fall armyworm larvae (Spodoptera frugiperda); assay: Spodoptera frugiperda spray test; conditions: in Zea mays, 168 h
# Method in brief: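 Maize leaf sections were sprayed with compound in acetone/dimethylformamide diluted in water with 1000 ppm emulsifier, dried, then infested with larvae. Mortality in % was scored after 7 days, 100% meaning all caterpillars killed.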
# [5] = test system: larvae of the southern green stink bug (Nezara viridula); assay: Nezara viridula spray test; conditions: 96 h, after 4 days, barley plants
# Method in brief: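 Percent mortality of southern green stink bug larvae was recorded at day 4, with 100% meaning all dead. The larvae were placed on barley sprayed with the test solution. That solution was prepared from acetone/dimethylformamide concentrate diluted in emulsifier-containing water (1000 ppm).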
# [6] = test system: green peach aphid (Myzus persicae); assay: Myzus persicae spray test; conditions: foliar, 120 h, after 5 days, Chinese cabbage leaf disks
# Method in brief: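 Chinese cabbage leaf disks infested with all aphid instars were sprayed with compound in acetone/DMF, diluted in water with 1000 ppm alkylarylpolyglycol ether emulsifier. Mortality (%) scored after 5 days, 100% meaning all aphids killed.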
# [7] = test system: Rhipicephalus (Boophilus) microplus larvae (strain Parkhurst, resistant against synthetic pyrethroids); assay: Rhipicephalus (Boophilus) microplus in-vitro contact test, larval cattle tick; conditions: 5 μg/cm^2 (=500 g/ha), after 48 hours, read-out: efficacy (larvae dead or moribund)
# Method in brief: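 Acetone solutions coated onto glass tube walls, 900 ppm giving 5 μg/cm^2; 20–50 larvae per tube after solvent evaporation. Incubated 48 h at 27 °C, 85% relative humidity; efficacy from negative geotaxis, 100% meaning all larvae dead or moribund.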
# [8] = test system: adult mosquitoes Aedes aegypti strain MONHEIM; assay: Aedes aegypti test (AEDSAE surface treatment & contact assay); conditions: 24 hours after contact, read-out: efficacy (mortality); for mortality at 4 mg/m2: surface concentration 4 mg/m^2, 30 minutes exposure; for mortality at 20 mg/m2: surface concentration 20 mg/m^2, 30 minutes exposure
# Method in brief: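 Compound in acetone (2 mg/ml) with 2000 ppm rapeseed oil methyl ester applied to glazed tile and dried; adult Aedes aegypti MONHEIM exposed on surface for 30 min. Percent mortality scored 24 h after contact.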
# [9] = test system: adult mosquitoes Culex quinquefasciatus strain P00; assay: Culex quinquefasciatus test (CULXFA surface treatment & contact assay); conditions: surface concentration 20 mg/m^2, 30 minutes exposure, 24 hours after contact, read-out: efficacy (mortality)
# Method in brief: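 Compound dissolved at 2 mg/ml in acetone with 2000 ppm rapeseed oil methyl ester, pipetted onto glazed tile and acetone evaporated. Adult Culex quinquefasciatus strain P00 exposed to dried surface for 30 minutes; percent mortality scored 24 hours after contact.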
# [10] = test system: adult brown dog ticks (Rhipicephalus sanguineus); assay: Rhipicephalus sanguineus in-vitro contact test, adult brown dog ticks; conditions: 5 μg/cm^2 (=500 g/ha), after 48 hours, read-out: efficacy (ticks dead or moribund)
# Description: Rhipicephalus sanguineus—In-Vitro Contact Tests with Adult Brown Dog Ticks
# as §1
# After the solvent has evaporated, each test tube is filled with 5-10 adult brown dog ticks (Rhipicephalus sanguineus), closed with a perforated lid and incubated in a lying position at room temperature and relative humidity. After 48 hours efficacy is determined. The ticks are patted on the ground of the tubes and are incubated on a heating plate at 45-50° C. for at most 5 minutes Immotile or uncoordinated moving ticks, which are not able to escape the heat by climbing upwards, are marked as dead or moribund.
# An efficacy of 100% means all ticks are dead or moribund; 0% means no ticks are dead or moribund.
# [11] = test system: adult flies Musca domestica strain WHO-N; assay: Musca domestica test (MUSCDO surface treatment & contact assay); conditions: 24 hours after contact, read-out: efficacy (mortality); for mortality at 4 mg/m2: surface concentration 4 mg/m^2, 30 minutes exposure; for mortality at 20 mg/m2: surface concentration 20 mg/m^2, 30 minutes exposure
# Method in brief: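 Compound dissolved in acetone (2 mg/ml) with 2000 ppm rapeseed oil methyl ester and dried onto glazed tiles. Adult WHO-N strain flies were held on the treated surface for 30 minutes, with % mortality scored 24 hours after contact.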
# [12] = test system: adult engorged female ticks (Rhipicephalus microplus); assay: Rhipicephalus (Boophilus) microplus injection test; conditions: 168 h, egg deposition monitored after 7 days, read-out: efficacy (infertile eggs); for pest or weed control at 4 µg/tick: 4 μg/tick injected
# Method in brief: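 Five adult engorged female ticks each injected with 1 μL of DMSO compound solution into the abdomen, then kept in a climate chamber. Fertile egg deposition assessed after 7 days, with hatching followed to about 42 days; efficacy 100% means all eggs infertile, 0% all fertile.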
# [13] = test system: southern root-knot nematode (Meloidogyne incognita); assay: Meloidogyne incognita test; conditions: 20 ppm, after 14 days
# Description: Meloidogyne incognita—Test
# • Solvent: 125.0 parts by weight of acetone
# To produce a suitable preparation of active compound, 1 part by weight of active compound is mixed with the stated amount of solvent, and the concentrate is diluted with water to the desired concentration. Vessels are filled with sand, a solution of the active ingredient, a suspension containing eggs and larvae of the southern root-knot nematode (Meloidogyne incognita) and salad seeds. The salad seeds germinate and the seedlings grow. Galls develop in the roots.
# After 14 days the nematicidal activity is determined on the basis of the percentage of gall formation. 100% means no galls were found and 0% means the number of galls found on the roots of the treated plants was equal to that in untreated control plants.
# [14] = test system: adult unfed cat fleas (Ctenocephalides felis); assay: Ctenocephalides felis oral test; conditions: 48 h, 100 ppm in cattle blood, after 2 days
# Description: Ctenocephalides felis—Oral Test
# • Solvent: dimethyl sulfoxide
# To produce a suitable preparation of active compound, 10 mg of active compound are dissolved in 0.5 mL solvent, and the concentrate is diluted with cattle blood to the desired concentration.
# Approximately 20 adult unfed cat fleas (Ctenocephalides felts) are placed in flea chambers. The blood chamber, sealed with parafilm on the bottom, are filled with cattle blood supplied with compound solution and placed on the gauze covered top of the flea chamber, so that the fleas are able to suck the blood. The blood chamber is heated to 37° C. whereas the flea chamber is kept at room temperature.
# After 2 days mortality in % is determined. 100% means all the fleas have been killed; 0% means none of the fleas have been killed.
Compound,"pest or weed control at 5 µg/cm2, 5 µg/cm2 [1]",mortality at 4 ppm [2],"pest or weed control at 32 µg/disc, 100 g/ha [3]",mortality at 100 g/ha [4],"pest or weed control at 5 µg/cm2, 5 µg/cm2 [7]",mortality at 4 mg/m2 [8],mortality at 20 mg/m2 [8],nematicidal activity (gall formation) [13],also measured
C[C@H](NC(=O)c1cc(OCC2CC2(Cl)Cl)cc(C(F)(F)F)c1)c1ncnn1-c1ncc(C#N)s1 (some centres unmarked) [Example I-30],80%,90%,100%,,,,,,
"C[C@H](NC(=O)c1cc(OC[S+](C)[O-])cc(C(F)(F)F)c1)c1ncnn1-c1ccc(C#N)cn1 (stereo partly drawn) [Example I-27, N-{(1S)-1-[1-(5-Cyanopyridin-2-yl)-1H-1,2,4-triazol-5-yl]ethyl}-3-[(methylsulfinyl)methoxy]-5-(trifluoromethyl)benzamide]",,100%,100%,100%,100%,80 to 100%,80 to 100%,,"mortality at 500 g/ha [4]: 100%; mortality at 100 g/ha [5]: 100%; mortality at 500 g/ha [5]: 100%; mortality at 20 ppm ([2]; 20 ppm): 100%; mortality at 100 g/ha [6]: 90%; pest or weed control at 160 µg/disc, 500 g/ha [3]: 100%"
C[C@H](NC(=O)c1cc(Cl)cc(C(=O)C2CC2)c1)c1ncnn1-c1ccc(C#N)cn1 [Example I-35],100%,100%,100%,100%,100%,80 to 100%,80 to 100%,,"mortality at 20 mg/m2 [9]: 80 to 100%; mortality at 100 g/ha [5]: 100%; pest or weed control at 5 µg/cm2, 5 µg/cm2 [10]: 80%; mortality at 4 mg/m2 [11]: 80 to 100%; mortality at 20 mg/m2 [11]: 80 to 100%"
C[C@H](NC(=O)c1cc(Cl)cc(Oc2ccc(F)cc2)c1)c1ncnn1-c1ccc(C#N)cn1 [Example I-9],,,,,90%,,,90%,pest or weed control at 4 µg/tick [12]: 100%; pest or weed control at 20 µg/tick ([12]; 20 μg/tick injected): 100%
"C[C@H](NC(=O)c1cc(Cl)cc(C(C)(C)C#N)c1)c1ncnn1-c1ccc(C#N)cn1 [Example I-33, 3-Chloro-5-(2-cyanopropan-2-yl)-N-{(1S)-1-[1-(5-cyanopyridin-2-yl)-1H-1,2,4-triazol-5-yl]ethyl}benzamide]",80%,100%,100%,100%,100%,80 to 100%,80 to 100%,,"mortality at 20 mg/m2 [9]: 80 to 100%; pest or weed control at 5 µg/cm2, 5 µg/cm2 [10]: 100%; mortality at 4 mg/m2 [11]: 80 to 100%; mortality at 20 mg/m2 [11]: 80 to 100%"
COc1nc([C@H](C)NC(=O)c2cc(Cl)cc(C(C)(C)C#N)c2)n(-c2ccc(C#N)cn2)n1 [Example I-39],,,100%,100%,,,,100%,
C[C@H](NC(=O)c1cc(Cl)cc(OC(C)(C)C#N)c1)c1ncnn1-c1ncc(C#N)s1 [Example I-61],,,100%,100%,,,,90%,
C[C@H](NC(=O)c1cc(Br)cc(C(F)(F)c2ccc(F)cc2)c1)c1ncnn1-c1ccc(C#N)cn1 [Example I-25],,,,100%,100%,,,90%,pest or weed control at 4 µg/tick [12]: 100%; mortality at 100 ppm [14]: 90%
C[C@H](NC(=O)c1cc(OCC(Cl)=C(Cl)Cl)cc(C(F)(F)F)c1)c1ncnn1-c1ccc(C#N)cn1 [Example I-24],,,100%,100%,,,,90%,"mortality at 500 g/ha [4]: 100%; pest or weed control at 160 µg/disc, 500 g/ha [3]: 100%"
"CCN(C)C(=O)c1ccc(-n2nc(C)nc2[C@H](C)NC(=O)c2cc(Cl)cc(C(C)(C)C#N)c2)nc1 [Example I-52, 6-[5-[(1S)-1-[[3-chloro-5-(1-cyano-1-methyl-ethyl)benzoyl]amino]ethyl]-3-methyl-1,2,4-triazol-1-yl]-N-ethyl-N-methyl-pyridine-3-carboxamide]",,,,100%,90%,,,100%,mortality at 500 g/ha [5]: 100%

# From patent US12653190B2, “Heteroaryl-triazole compounds as pesticides” (Bayer Aktiengesellschaft, priority 2020, dated 2026)
